Measurements: publication PMC8508960, “Ruthenium Half-Sandwich Type Complexes with Bidentate Monosaccharide Ligands Show Antineoplastic Activity in Ovarian Cancer Cell Models through Reactive Oxygen Species Production” (International Journal of Molecular Sciences, 2021)

Tests used:
[1] = Aqueous stability over time by NMR; type: physicochemical; details: aqueous medium, 2 day old equilibrated sample, KCl added
Source text: The aqueous stability of the complexes was also studied over time. The small shifts of signals attributable to the structural change of the complex can be observed; however, by adding KCl to the 2 day old equilibrated sample, the original signals could be recovered.

[2] = Determination of the distribution coefficients (logD), n-octanol/PBS; type: physicochemical; details: n-octanol / PBS pH = 7.40
Procedure: Prior to the experiments, n-octanol was saturated with aqueous PBS solution (pH = 7.40) and vice versa. The corresponding complex (approximately 0.2–0.3 mg) was dissolved in a mixture of 2.50 mL of pre-saturated n-octanol and 2.50 mL of pre-saturated PBS buffer, and the mixture was vigorously stirred for 3 days. According to the NMR stability measurements, this time was necessary to reach equilibrium between the various ionic complex species. Due to the lipophilic/hydrophilic character of the complexes, those with benzoyl protection or the non-sugar derivative could mostly be found in the n-octanol, while the acetyl and non-protected complexes could be found in the aqueous PBS phase. The appropriate separated solution was centrifuged (ScanSpeed 406G instrument, 4000 RPM for 5 min), and the absorption of the “stock solution” was measured (VWR UV-1600PC Spectrophotometer, 270–420 nm). Then 2.00 mL of stock solution was stirred vigorously with 16.00 mL of pre-saturated, clean n-octanol or PBS solution. After 1 day, the phases were separated and centrifuged, and the absorption of the solution was measured again. From the absorption difference of the stock solutions, the distribution coefficient (D) was calculated according to the previously described formulae [66].

[3] = tested on: A2780 human ovarian carcinoma cells; assay: SRB proliferation assay (48 h) on A2780 cells; type: cell-based; details: for cytostatic activity in long-term SRB assay (in words): A2780 cells, 100–0.0017 µM; for Hill slope (span over cell lines): SRB curves, A2780 and ID8 cells; for A2780 Hill Slope / IC50: SRB, nonlinear regression, N/A = could not be calculated/had no effect
Procedure: (§1) Cells were cultured under standard cell culture conditions, 37 °C, 5% CO2, humidified atmosphere. A2780 cells were cultured in RMPI 1640 medium supplemented with 10% fetal calf serum, 2 mM glutamine, and 1% penicillin–streptomycin (Sigma-Aldrich). ID8 cells were cultured in high-glucose DMEM (4.5 g/L glucose) supplemented with 4% fetal calf serum, 2 mM glutamine, 1% penicillin–streptomycin (Sigma-Aldrich), and 1% ITS supplement (Sigma-Aldrich I3146). U251 cells were maintained in MEM (Sigma-Aldrich), 10% fetal bovine serum (Sigma-Aldrich), 1% penicillin/streptomycin (Invitrogene), and 2 mM glutamine. MCF7 cells were maintained in MEM (Sigma-Aldrich), 10% fetal bovine serum (Sigma-Aldrich), 1% penicillin/streptomycin (Invitrogen, Waltham, MA, USA), and 2 mM glutamine. Capan2 cells were maintained in MEM (Sigma-Aldrich), 10% fetal bovine serum (Sigma-Aldrich), 1% penicillin/streptomycin (Invitrogen), and 2 mM glutamine. Human primary dermal fibroblasts were cultured in low-glucose DMEM (1 g/L glucose) supplemented with 20% fetal calf serum, 2 mM glutamine, and 1% penicillin–streptomycin (Sigma-Aldrich).
(§2) The SRB accumulation assay assesses protein content in a sample, and it was used to assess cell proliferation. The SRB accumulation assay was performed similarly to [68]. Cells were seeded in 96-well plates. The next day, cells were treated with the compounds for 48 h in the concentrations indicated in a cell incubator. At the end of treatment, cells were fixed with 10% trichloroacetic acid (TCA). Fixed cells were stained with SRB (0.4% m/v dissolved in 1% acetic acid) for 60 min. Fixed cells were washed in 1% acetic acid three times; acetic acid was removed, and cells were left to dry. Protein-bound SRB was released by adding 100 µL of 10 mM Tris base. Plates were measured in a plate photometer (Thermo Scientific Multiscan GO spectrophotometer, Waltham, MA, USA) at 540 nm. On each plate, wells were designed to contain untreated cells. In calculations, the readings for these wells were considered as 1, and all readings were expressed relative to these values.
(§3) Statistical analysis was performed using Graphpad Prism version 8.0.1. Values were tested for normal distribution using the D’Agostino and Pearson normality test. When necessary, values were log-normalized or were normalized using the Box–Cox normalization method, as indicated in the figure captions. Nonlinear regression was performed using the built-in “[Inhibitor] vs. response—variable slope (four parameters), least square fit” utility of Graphpad that yielded IC50 and Hill slope values.

ID8 cells [4] = assay: SRB proliferation assay (48 h) on ID8 cells; type: cell-based; details: for cytostatic activity in long-term SRB assay (in words): ID8 cells; for IC50 / ID8 Hill Slope: SRB, nonlinear regression, N/A = could not be calculated/had no effect
Procedure: as §1, §2, §3

[5] = tested on: human primary skin fibroblasts; assay: SRB proliferation assay (48 h) on primary fibroblasts; type: cell-based
Procedure: as §1, §2, §3

[6] = tested on: U251 cells (glioblastoma model); assay: SRB proliferation assay (48 h) on U251 cells; type: cell-based; details: nonlinear regression
Procedure: as §1, §2, §3

[7] = tested on: MCF7 cells (breast cancer); assay: SRB proliferation assay (48 h) on MCF7 cells; type: cell-based; details: nonlinear regression
Procedure: as §1, §2, §3

[8] = tested on: Capan2 (pancreatic adenocarcinoma); assay: SRB proliferation assay (48 h) on Capan2 cells; type: cell-based; details: nonlinear regression
Procedure: as §1, §2, §3

[9] = tested on: A2780 human ovarian carcinoma cells; assay: MTT reduction assay (4 h, rapid toxicity) on A2780 cells; type: cell-based
Procedure: as §1
(§4) The MTT reduction assay assesses the activity of mitochondrial complex I, and it was used to assess rapid toxicity. The MTT reduction assay was performed similarly to [67]. Cells were seeded in 96-well plates. The next day, cells were treated with the compounds for 4 h in the concentrations indicated in a cell incubator. At the end of treatment, MTT was added in 0.5 mg/mL final concentration, and cells were incubated at 37 °C in a cell incubator. Then, culture media was removed, the reduced MTT dye was resolved in dimethyl sulfoxide (DMSO), and plates were measured in a plate photometer (Thermo Scientific Multiscan GO spectrophotometer, Waltham, MA, USA) at 540 nm. On each plate, wells were designed to contain untreated/vehicle-treated cells. In calculations, the readings for these wells were considered as 1, and all readings were expressed relative to these values.

ID8 cells [10] = assay: MTT reduction assay (4 h, rapid toxicity) on ID8 cells; type: cell-based
Procedure: as §1, §4

[11] = tested on: human primary skin fibroblasts; assay: MTT reduction assay (4 h, rapid toxicity) on primary fibroblasts; type: cell-based
Procedure: as §1, §4

A2780 cells [12] = assay: Annexin V-FITC, PI double staining (flow cytometry); type: cell-based, human; details: concentration corresponding to IC50, 2 h, 4 h or 48 h
Procedure: Annexin V–PI double staining was applied to assess apoptotic and necrotic cell death similar to [37, 38, 69]. A2780 cells were treated with the indicated compounds at the concentration corresponding to their IC50 value for 2, 4, and 48 h. The 4 and 48 h time points correspond to the time points for the MTT and SRB assays, while the 2 h time point reflects the optimum time point for the detection of apoptotic or necrotic cell death. Quadrants were set on the basis of the FITC and PI values observed for the vehicle-treated cells.

A2780 cells [13] = assay: Western blotting of 4-hydroxy-nonenal (4HNE), oxidative stress marker; type: cell-based, human; details: concentration corresponding to IC50, 48 h
Procedure: The preparation of protein extracts, the separation of protein extracts in SDS-polyacrylamide gel electrophoresis, and the subsequent Western blotting were performed as described in [70] using the antibodies in Table 4. Enhanced chemiluminescence was developed using ChemiDoc Imager, (Bio-Rad, Hercules, CA, USA). Densitometry was performed using Image Lab Touch Software, Bio-Rad, Hercules, CA, USA).

A2780 cells [14] = assay: SRB assay on A2780 cells with antioxidant cotreatment (GSH, NAC, MitoTEMPO, vitamin E, Trolox); type: cell-based, human; details: 48 h
Procedure: as §2

A2780 cells [15] = assay: SRB assay on A2780 cells with or without 3 µM rucaparib; type: cell-based, human; details: 48 h, vehicle (no rucaparib)
Procedure: as §2, §3

SMILES: Cc1ccc(C(C)C)cc1.F[P-](F)(F)(F)(F)F.OCC1OC(n2cc(-c3ccccn3)nn2)C(O)C(O)C1O.[Cl][Ru+] (mixture of isomers) [Ru-3a]
- aqueous stability over time (NMR) [1]: only the exchange of the coordinating chloride ion by a water molecule occurred in a reversible manner

SMILES: Cc1ccc(C(C)C)cc1.F[P-](F)(F)(F)(F)F.O=C(OC1COC(c2n[n+]3c(o2)-c2cccc[n+]2[Ru-]3[Cl])C(OC(=O)c2ccccc2)C1OC(=O)c1ccccc1)c1ccccc1 (mixture of isomers) [Ru-6]
- logD [2]: 2.04
- cytostatic activity in long-term SRB assay (in words) [3]: cytostatic properties
- Hill slope (span over cell lines) [3]: 2–3
- A2780 Hill Slope [3]: 3.74
- IC50 [3]: 8.54 µM
- cytostatic activity in long-term SRB assay (in words) (ID8 cells [4]): cytostatic
- IC50 (ID8 cells [4]): 6.76 µM
- ID8 Hill Slope (ID8 cells [4]): 3.59
- Fibroblast Hill Slope ([5]; SRB, nonlinear regression, N/A = could not be calculated/had no effect): 3.52
- IC50 ([5]; SRB, nonlinear regression, N/A = could not be calculated/had no effect, read-out: Fibroblast IC50): 24.6 µM
- effect on SRB signal at 100 µM ([5]; primary human fibroblasts, 100 µM): reduced the SRB signal
- IC50 [6]: 6.61 µM
- U251 Hill Slope [6]: 2.13
- IC50 [7]: 6.69 µM
- MCF7 Hill Slope [7]: 2.13
- Capan2 Hill Slope [8]: 1.66
- IC50 [8]: 4.97 µM
- effect in short-term MTT assay, rapid toxicity (in words) [9]: cytostatic properties
- effect on MTT signal at 100 µM (ID8 cells [10]; 100 µM, Ru-4: not statistically significant): reduced the MTT signal
- effect in short-term MTT assay, rapid toxicity (in words) [11]: no effect
- proportions of PI-positive, annexin V-positive and double-positive cells (A2780 cells [12]): did not largely increase
- expression of oxidative stress marker 4-hydroxy-nonenal (4HNE) (A2780 cells [13]): increase in the expression
- effect of GSH and NAC cotreatment on the cytostatic effects of the complex (A2780 cells [14]): attenuated the cytostatic effects
- effect of MitoTEMPO on the cytostatic effects of the complex (A2780 cells [14]): did not modulate the effects
- IC50 (A2780 cells [15]): 6.83 µM

SMILES: Cc1ccc(C(C)C)cc1.F[P-](F)(F)(F)(F)F.O=C(OCC1OC(c2nnc(-c3ccccn3)o2)C(OC(=O)c2ccccc2)C(OC(=O)c2ccccc2)C1OC(=O)c1ccccc1)c1ccccc1.[Cl][Ru+] (mixture of isomers) [Ru-8]
- logD [2]: 2.44
- cytostatic activity in long-term SRB assay (in words) [3]: cytostatic properties
- Hill slope (span over cell lines) [3]: 2–3
- A2780 Hill Slope [3]: 3.50
- IC50 [3]: 4.27 µM
- cytostatic activity in long-term SRB assay (in words) (ID8 cells [4]): cytostatic
- IC50 (ID8 cells [4]): 7.94 µM
- ID8 Hill Slope (ID8 cells [4]): 3.31
- effect in long-term SRB assay (in words) ([5]; primary human fibroblasts): no effect
- IC50 [6]: 4.49 µM
- U251 Hill Slope [6]: 2.50
- IC50 [7]: 3.75 µM
- MCF7 Hill Slope [7]: 2.06
- Capan2 Hill Slope [8]: 1.66
- IC50 [8]: 3.82 µM
- effect in short-term MTT assay, rapid toxicity (in words) [9]: cytostatic properties
- effect on MTT signal above 10 µM ([9]; above 10 µM concentration): reduced the MTT signal
- effect on MTT signal above 10 µM (ID8 cells [10]; above 10 µM concentration): reduced the MTT signal
- effect in short-term MTT assay, rapid toxicity (in words) [11]: no effect
- proportions of PI-positive, annexin V-positive and double-positive cells (A2780 cells [12]): did not largely increase
- expression of oxidative stress marker 4-hydroxy-nonenal (4HNE) (A2780 cells [13]): increase in the expression
- effect of GSH and NAC cotreatment on the cytostatic effects of the complex (A2780 cells [14]): attenuated the cytostatic effects
- effect of MitoTEMPO on the cytostatic effects of the complex (A2780 cells [14]): did not modulate the effects
- IC50 (A2780 cells [15]): 4.17 µM
